Source: ChEMBL document CHEMBL1201862, “PubChem BioAssay data set” (2004)
Activity calls are given as the source filed them.

Experiments:
[1] = biological target: T1, Voltage-gated N-type calcium channel alpha-1B subunit/Amyloid beta A4 precursor protein-binding family A member 1 (Homo sapiens, UniProt Q00975+Q02410); format: protein assay
[2] = biological target: T1, Voltage-gated N-type calcium channel alpha-1B subunit/Amyloid beta A4 precursor protein-binding family A member 1; format: protein assay; remark: listed apart in the source
[3] = biological target: T2, Intestinal-type alkaline phosphatase (Homo sapiens, UniProt P09923); experiment: human intestinal alkaline phosphatase activators, dose response, biochemical, luminescence, uHTS hits (AID 463120); format: functional
[4] = biological target: T2, Intestinal-type alkaline phosphatase; experiment: Dose Response confirmation of uHTS hits from a small molecule inhibitors of human intestinal alkaline phosphatase via a luminescent assay. [Related pubchem assays (depositor defined):AID2544, AID2574]; format: functional
[5] = biological target: DNA dC->dU-editing enzyme APOBEC-3G (Homo sapiens, UniProt Q9HC16); experiment: Dose Response confirmation of small molecule APOBEC3G DNA Deaminase Inhibitors via a fluorescence-based single-stranded DNA deaminase assay. [Related pubchem assays (depositor defined):AID493012, AID493028]; format: functional
[6] = biological target: DNA dC->dU-editing enzyme APOBEC-3A (Homo sapiens, UniProt P31941); experiment: APOBEC3A DNA deaminase inhibitors, dose response, biochemical (AID 504722); format: functional
[7] = biological target: DNA damage-inducible transcript 3 protein (Mus musculus, UniProt P35639); format: functional, Cricetulus griseus
cells [8] = experiment: cells
[9] = biological target: T3, Type-1 angiotensin II receptor (Homo sapiens, UniProt P30556); experiment: AT1 receptor agonists, dose response, selectivity assay for APJ receptor agonist project, cell-based, uHTS hits (AID 488865); format: functional;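 note: beta-arrestin recruitment to AT1 measured by enzyme fragment complementation luminescence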
T3 sequence (P30556 whole entry): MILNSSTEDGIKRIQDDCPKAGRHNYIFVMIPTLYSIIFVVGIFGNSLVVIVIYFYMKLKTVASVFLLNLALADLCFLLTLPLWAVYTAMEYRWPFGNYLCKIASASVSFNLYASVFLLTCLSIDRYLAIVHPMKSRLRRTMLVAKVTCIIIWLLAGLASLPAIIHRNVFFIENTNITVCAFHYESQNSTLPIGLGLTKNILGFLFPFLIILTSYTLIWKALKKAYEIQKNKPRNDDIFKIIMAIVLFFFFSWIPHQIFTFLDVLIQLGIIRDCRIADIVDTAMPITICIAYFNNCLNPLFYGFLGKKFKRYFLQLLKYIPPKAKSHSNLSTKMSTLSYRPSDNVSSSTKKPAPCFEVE

[10] = cytotoxicity toward NIH3T3 fibroblasts, dose response, counter-screen, cell-based, ATP luminescence, mouse fibroblasts (AID 2010); format: functional;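 note: cells exposed to compound for about 90 hours before reading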
[11] = HEp-2 cell cytotoxicity, dose response, cytotoxicity control for RSV inhibitor project, HTS (AID 2410); format: functional; conditions: human respiratory syncytial virus
BJ [12] = experiment: cells; format: functional, cell-based; conditions: Homo sapiens
[13] = inhibitors of intracellular T. cruzi replication, confirmation, NIH3T3 host cells, beta-gal luminescence (AID 2044); format: functional, cell-based;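 note: intracellular parasites grown in NIH/3T3 mouse fibroblasts as host cells; luminescent beta-galactosidase reporter signal from transgenic T. cruzi replicating inside host cells; inhibitors lower the luminescence signal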
BJ [14] = experiment: cytotoxicity toward BJ-TERT-LT-ST fibroblasts, dose response, cell-based, RAS-independent, luminescence (AID 1935); format: functional; conditions: Homo sapiens;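 note: BJ fibroblasts immortalized with TERT plus LT and ST oncogenes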
Melanocortin receptor 4 = Melanocortin receptor 4 (Homo sapiens, UniProt P32245); format: functional, cell-based;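 note: Cell-based assay with luminescence read-out, confirmatory dose-response testing for agonist activity of biased ligands at MC4R; human U2OS cells with tagged receptor and beta-arrestin; potency of agonists that increase receptor coupling to beta-arrestin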
[15] = cytotoxicity toward DRD oncogenic fibroblasts, dose response, cell-based, non-viral oncogenic, luminescence (AID 1934); format: functional; conditions: Homo sapiens
BJ [16] = experiment: cytotoxicity toward BJ-TERT fibroblasts, dose response, cell-based, RAS-independent, luminescence (AID 1933); format: functional; conditions: Homo sapiens
[17] = biological target: Alkaline phosphatase, placental type (Homo sapiens, UniProt P05187); experiment: PLAP enzyme inhibitors, confirmation, biochemical, luminescence (AID 1512); format: functional
cells [18] = format: functional
[19] = biological target: T4, Ubiquitin-conjugating enzyme E2 N (Homo sapiens, UniProt P61088); format: functional;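 note: Dose-response confirmation in a TR-FRET assay detecting UBC13-driven polyubiquitin chain formation, inhibition measured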
T4 sequence (P61088 whole entry): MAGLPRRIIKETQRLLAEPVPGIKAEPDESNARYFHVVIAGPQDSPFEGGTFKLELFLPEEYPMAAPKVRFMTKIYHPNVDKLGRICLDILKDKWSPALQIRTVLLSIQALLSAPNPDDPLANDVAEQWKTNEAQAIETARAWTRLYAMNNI

[20] = microbe, parasite or virus in culture; format: functional; conditions: Mycobacterium tuberculosis
HEK293 = experiment: inhibitors of LMP1-driven NF-kB reporter, dose response, cell-based, HEK293, luciferase, cherry-pick (AID 588343); format: functional; conditions: Homo sapiens
[21] = THP-1 cell cytotoxicity, dose response, cytotoxicity control for non-replicating M. tuberculosis project (AID 489025); format: functional
[22] = Vero E6 cell cytotoxicity, dose response, cytotoxicity control for non-replicating M. tuberculosis project, secondary assay (AID 492998); format: functional, VeroE6; conditions: Vero C1008
Coagulation factor XII = biological target: T5, Coagulation factor XII (Homo sapiens, UniProt P00748); format: functional;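 note: activated factor XIIa alpha cleaving a fluorogenic AMC peptide substrate; inhibitor potency from loss of enzyme activity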
T5 sequence (P00748 whole entry): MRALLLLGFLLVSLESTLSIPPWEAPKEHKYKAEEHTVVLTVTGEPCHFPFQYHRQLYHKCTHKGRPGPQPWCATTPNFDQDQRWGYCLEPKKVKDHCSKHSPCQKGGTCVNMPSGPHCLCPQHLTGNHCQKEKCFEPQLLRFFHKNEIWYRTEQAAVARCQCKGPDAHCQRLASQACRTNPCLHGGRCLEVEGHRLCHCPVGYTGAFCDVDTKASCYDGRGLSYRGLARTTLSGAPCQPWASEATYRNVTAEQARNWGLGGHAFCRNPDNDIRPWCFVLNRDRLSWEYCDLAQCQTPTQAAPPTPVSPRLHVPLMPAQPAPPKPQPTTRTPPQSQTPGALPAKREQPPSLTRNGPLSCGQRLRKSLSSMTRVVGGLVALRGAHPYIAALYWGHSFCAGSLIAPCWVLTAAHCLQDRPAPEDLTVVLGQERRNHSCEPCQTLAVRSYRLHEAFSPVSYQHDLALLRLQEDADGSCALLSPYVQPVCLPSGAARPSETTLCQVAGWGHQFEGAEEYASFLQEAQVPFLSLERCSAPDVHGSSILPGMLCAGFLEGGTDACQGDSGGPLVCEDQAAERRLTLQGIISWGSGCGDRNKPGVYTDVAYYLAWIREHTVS

[23] = biological target: T1, Voltage-gated N-type calcium channel alpha-1B subunit/Amyloid beta A4 precursor protein-binding family A member 1; experiment: disruptors of Mint-PDZ/N-type channel peptide interaction – biochemical, HTRF, SAR follow-up (AID 2489); format: functional
[24] = biological target: T1, Voltage-gated N-type calcium channel alpha-1B subunit/Amyloid beta A4 precursor protein-binding family A member 1; experiment: disruptors of Mint-PDZ/N-type channel peptide interaction – biochemical, HTRF, set 2, SAR follow-up (AID 434980); format: functional

T1 sequence (Q00975 whole entry): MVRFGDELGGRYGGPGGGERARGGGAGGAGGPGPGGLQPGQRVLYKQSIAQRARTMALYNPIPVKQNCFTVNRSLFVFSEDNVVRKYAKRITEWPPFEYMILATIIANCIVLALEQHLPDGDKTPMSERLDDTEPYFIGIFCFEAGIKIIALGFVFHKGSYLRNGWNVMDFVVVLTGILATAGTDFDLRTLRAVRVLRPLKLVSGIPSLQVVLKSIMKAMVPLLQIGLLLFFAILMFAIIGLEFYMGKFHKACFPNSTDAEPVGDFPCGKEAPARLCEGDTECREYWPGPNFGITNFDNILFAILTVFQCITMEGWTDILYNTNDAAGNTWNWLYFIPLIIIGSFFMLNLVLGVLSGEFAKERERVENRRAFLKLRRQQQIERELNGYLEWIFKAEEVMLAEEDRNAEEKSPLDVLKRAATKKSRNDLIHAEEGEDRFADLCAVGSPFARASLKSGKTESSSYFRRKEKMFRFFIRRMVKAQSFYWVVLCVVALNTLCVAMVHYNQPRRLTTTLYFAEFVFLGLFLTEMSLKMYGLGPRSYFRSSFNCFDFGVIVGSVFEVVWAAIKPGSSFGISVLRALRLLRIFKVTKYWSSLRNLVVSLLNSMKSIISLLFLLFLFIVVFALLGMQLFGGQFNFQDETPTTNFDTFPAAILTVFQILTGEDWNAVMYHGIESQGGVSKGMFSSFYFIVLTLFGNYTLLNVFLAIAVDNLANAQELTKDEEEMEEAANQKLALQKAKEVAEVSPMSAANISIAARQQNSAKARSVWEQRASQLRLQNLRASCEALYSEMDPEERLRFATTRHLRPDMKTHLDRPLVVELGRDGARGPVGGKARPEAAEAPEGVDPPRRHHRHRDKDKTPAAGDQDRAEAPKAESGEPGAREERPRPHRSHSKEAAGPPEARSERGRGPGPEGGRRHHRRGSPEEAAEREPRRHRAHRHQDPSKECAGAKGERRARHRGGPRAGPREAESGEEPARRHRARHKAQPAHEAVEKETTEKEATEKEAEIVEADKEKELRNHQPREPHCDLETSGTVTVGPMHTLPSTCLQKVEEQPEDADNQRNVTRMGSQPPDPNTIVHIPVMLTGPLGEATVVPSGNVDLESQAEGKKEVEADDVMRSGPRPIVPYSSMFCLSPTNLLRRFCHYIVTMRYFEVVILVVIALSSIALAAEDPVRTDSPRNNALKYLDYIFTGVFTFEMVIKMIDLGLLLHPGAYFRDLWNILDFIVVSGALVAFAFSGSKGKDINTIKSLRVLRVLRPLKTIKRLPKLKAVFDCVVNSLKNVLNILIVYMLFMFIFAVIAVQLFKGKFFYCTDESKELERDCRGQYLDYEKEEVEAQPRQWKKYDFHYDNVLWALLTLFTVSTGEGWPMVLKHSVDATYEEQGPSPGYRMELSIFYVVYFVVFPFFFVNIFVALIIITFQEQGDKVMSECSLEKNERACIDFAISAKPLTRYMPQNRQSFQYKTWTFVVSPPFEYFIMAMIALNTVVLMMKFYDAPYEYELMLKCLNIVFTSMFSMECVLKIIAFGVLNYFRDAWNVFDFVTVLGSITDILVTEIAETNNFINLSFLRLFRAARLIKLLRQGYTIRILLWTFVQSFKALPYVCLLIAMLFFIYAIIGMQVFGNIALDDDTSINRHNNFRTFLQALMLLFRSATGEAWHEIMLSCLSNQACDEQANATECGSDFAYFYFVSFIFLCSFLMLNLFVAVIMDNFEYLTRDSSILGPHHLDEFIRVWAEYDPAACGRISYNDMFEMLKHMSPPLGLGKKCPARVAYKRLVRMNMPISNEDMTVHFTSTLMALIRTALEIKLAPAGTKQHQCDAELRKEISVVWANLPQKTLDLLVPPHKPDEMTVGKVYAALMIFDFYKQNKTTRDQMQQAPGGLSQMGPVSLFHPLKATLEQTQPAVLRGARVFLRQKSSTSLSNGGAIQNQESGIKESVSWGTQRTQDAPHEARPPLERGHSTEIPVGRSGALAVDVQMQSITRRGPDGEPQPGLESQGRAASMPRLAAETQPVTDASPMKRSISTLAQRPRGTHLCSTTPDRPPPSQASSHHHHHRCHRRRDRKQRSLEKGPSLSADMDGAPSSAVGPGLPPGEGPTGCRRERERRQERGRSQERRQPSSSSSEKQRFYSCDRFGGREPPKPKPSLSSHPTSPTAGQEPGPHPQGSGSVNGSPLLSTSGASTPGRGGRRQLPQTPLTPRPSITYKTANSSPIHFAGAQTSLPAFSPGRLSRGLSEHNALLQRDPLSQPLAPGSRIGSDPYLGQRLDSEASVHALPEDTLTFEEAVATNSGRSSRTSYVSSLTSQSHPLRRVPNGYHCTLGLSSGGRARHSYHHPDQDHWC
T1 sequence (Q02410 whole entry): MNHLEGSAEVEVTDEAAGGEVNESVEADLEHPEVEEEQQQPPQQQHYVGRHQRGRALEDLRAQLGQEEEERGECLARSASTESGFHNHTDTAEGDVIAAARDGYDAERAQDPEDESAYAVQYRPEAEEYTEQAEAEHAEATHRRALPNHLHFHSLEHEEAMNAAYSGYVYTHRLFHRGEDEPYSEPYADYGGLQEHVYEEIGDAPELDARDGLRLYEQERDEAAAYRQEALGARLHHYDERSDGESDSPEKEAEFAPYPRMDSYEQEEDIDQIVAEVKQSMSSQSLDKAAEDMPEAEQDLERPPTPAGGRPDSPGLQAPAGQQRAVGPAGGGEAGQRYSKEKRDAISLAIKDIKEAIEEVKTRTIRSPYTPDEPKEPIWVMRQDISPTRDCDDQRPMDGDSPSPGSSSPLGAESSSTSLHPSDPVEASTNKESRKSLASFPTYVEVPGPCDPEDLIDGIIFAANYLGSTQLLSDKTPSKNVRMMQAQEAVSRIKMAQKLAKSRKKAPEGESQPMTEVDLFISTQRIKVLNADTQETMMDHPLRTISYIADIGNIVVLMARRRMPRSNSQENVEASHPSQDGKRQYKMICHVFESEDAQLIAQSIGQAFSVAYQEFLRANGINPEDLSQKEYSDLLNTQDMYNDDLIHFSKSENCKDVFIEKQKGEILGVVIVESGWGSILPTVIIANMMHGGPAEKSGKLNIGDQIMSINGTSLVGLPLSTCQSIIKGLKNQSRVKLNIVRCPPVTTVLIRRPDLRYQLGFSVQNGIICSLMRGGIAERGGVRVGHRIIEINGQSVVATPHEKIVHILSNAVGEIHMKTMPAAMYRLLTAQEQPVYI
T2 sequence (P09923 whole entry): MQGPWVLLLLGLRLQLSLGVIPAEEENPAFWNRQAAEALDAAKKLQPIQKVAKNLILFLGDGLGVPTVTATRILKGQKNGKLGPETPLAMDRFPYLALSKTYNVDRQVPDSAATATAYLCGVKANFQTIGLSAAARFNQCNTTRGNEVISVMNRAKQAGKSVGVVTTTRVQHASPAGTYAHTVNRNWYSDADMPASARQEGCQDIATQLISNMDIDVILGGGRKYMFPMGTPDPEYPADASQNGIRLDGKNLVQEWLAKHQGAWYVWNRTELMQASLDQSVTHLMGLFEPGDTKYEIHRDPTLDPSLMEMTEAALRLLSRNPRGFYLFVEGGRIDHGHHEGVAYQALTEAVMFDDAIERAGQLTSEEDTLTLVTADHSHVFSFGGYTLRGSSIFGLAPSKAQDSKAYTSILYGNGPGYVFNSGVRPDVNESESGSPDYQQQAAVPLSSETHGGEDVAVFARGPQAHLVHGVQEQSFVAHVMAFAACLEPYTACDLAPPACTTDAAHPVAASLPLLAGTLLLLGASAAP
Chain of DNA damage-inducible transcript 3 protein (P35639 whole entry): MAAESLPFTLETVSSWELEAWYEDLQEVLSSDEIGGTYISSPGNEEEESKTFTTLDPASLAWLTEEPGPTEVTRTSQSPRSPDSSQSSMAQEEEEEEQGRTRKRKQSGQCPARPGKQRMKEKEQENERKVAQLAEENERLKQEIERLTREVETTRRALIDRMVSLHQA
Chain of Melanocortin receptor 4 (P32245 whole entry): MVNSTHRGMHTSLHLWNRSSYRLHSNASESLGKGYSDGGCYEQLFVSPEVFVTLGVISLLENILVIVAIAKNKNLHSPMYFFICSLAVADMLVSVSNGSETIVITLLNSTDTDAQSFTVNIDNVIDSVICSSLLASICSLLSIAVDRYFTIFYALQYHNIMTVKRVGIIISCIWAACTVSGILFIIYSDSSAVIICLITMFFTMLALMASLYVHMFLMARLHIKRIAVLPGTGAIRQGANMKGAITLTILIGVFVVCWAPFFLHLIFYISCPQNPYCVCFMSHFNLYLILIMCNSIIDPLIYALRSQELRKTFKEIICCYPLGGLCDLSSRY
Chain of DNA dC->dU-editing enzyme APOBEC-3G (Q9HC16 whole entry): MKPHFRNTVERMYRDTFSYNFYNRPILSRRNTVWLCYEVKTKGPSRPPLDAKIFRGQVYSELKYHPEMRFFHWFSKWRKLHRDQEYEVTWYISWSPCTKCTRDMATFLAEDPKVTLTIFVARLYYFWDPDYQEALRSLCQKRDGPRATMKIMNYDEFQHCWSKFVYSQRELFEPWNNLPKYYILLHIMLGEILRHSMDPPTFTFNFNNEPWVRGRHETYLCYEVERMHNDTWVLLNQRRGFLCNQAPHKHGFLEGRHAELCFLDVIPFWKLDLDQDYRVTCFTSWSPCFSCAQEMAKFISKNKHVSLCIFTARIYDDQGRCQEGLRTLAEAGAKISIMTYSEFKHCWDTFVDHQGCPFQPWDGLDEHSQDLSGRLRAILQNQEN
Chain of DNA dC->dU-editing enzyme APOBEC-3A (P31941 whole entry): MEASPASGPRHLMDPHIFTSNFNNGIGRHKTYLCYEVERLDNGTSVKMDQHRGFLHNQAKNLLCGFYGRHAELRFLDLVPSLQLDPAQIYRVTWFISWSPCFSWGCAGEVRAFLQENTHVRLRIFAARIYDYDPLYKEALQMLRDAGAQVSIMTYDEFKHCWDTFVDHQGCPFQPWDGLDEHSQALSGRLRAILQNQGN

COc1cccc2cc(C(=O)Nc3ccc(S(=O)(=O)NCC4CCCO4)cc3)c(=O)oc12 (stereo not drawn)
IC50 [1]: > 50 µM (inactive)
IC50 [2]: > 56.8 µM (not active)

CCc1nnc(NC(=O)CSc2nnc(C)c(=O)n2N)s1
EC50 [3]: > 100 µM (inactive)
IC50 [4]: > 100 µM (inactive)

CCN(CC)S(=O)(=O)c1cccc(-c2n[nH]c(=S)n2C)c1
IC50 [5]: 4.94 µM (active)
IC50 [6]: > 100 µM (inactive)

CCC(CC)c1nnc(NC(=O)c2c(C)nn(Cc3ccccc3Cl)c2C)s1
Absolute IC50 (CHOP) [7]: < 10 µM

CN(C)CCCN(C(=O)c1cc2cc([N+](=O)[O-])ccc2s1)c1nc2cc3c(cc2s1)OCCO3
EC50 (cells [8]): 0.148 µM (active)
EC50 [9]: > 100 µM (inactive)
EC50 [10]: 6.94 µM (active)
CC50 [11]: 24.5 µM (active)
EC50 (BJ [12]): 7.44 µM (active)
EC50 [13]: < 0.1 µM (active)
EC50 (BJ [14]): 2.89 µM (inconclusive)
EC50 (Melanocortin receptor 4): > 89.2 µM (inactive)
EC50 [15]: 2.96 µM (inconclusive)
EC50 (BJ [16]): 1.65 µM (active)

COc1ccc(OCC(=O)NNC(=O)c2ccccn2)cc1
IC50 [17]: > 100 µM (inactive)
IC50 (cells [18]): 9.61 µM (active)
IC50 [19]: > 20 µM (inactive)

S=C1SCN(Cc2ccco2)CN1Cc1ccco1
IC50 (cells [18]): 22.4 µM (active)
CC50 [20]: 16.8 µM (active)
AC50 (HEK293): 0.574 µM (active)
CC50 [21]: 8.73 µM (active)
CC50 [22]: 18.4 µM (active)

O=C1CC(N2CCN(Cc3ccc(Cl)cc3)CC2)C(=O)N1CCc1ccccc1 (stereo not drawn)
IC50 (Coagulation factor XII): > 50 µM (inactive)

Cc1ccc(N2C(=O)C3C(C2=O)C2(C)C=CC3(C)O2)cc1 (stereo not drawn)
IC50 [23]: 11.5 µM (active)
IC50 [24]: > 56.8 µM (inactive)
